How the values were obtained:
Format in all cases: cell-based
[1] = molecular target: human TLR7 (Homo sapiens (Human), UniProt Q9NYK1); experiment: TLR7 inhibition reporter assay (HEK-Blue, SEAP); conditions: HEK-Blue cells overexpressing human TLR7, gardiquimod 7.5 μM stimulation
Summary of the method: (§1)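 HEK-Blue cells overexpressing the receptor carry a SEAP reporter under IFN-β minimal promoter with NF-κB/AP-1 sites. Compounds (0.05 nM–50 μM final) were preincubated 30 min at room temperature, then cells were stimulated with gardiquimod 7.5 μM (TLR7), R848 15.9 μM (TLR8) or ODN2006 5 nM (TLR9) for 22 h at 37 °C.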

[2] = molecular target: human TLR8 (Homo sapiens (Human), UniProt Q9NR97); experiment: TLR8 inhibition reporter assay (HEK-Blue, SEAP); conditions: HEK-Blue cells overexpressing human TLR8, R848 15.9 μM stimulation
human TLR8, sequence (Q9NR97 27-1041): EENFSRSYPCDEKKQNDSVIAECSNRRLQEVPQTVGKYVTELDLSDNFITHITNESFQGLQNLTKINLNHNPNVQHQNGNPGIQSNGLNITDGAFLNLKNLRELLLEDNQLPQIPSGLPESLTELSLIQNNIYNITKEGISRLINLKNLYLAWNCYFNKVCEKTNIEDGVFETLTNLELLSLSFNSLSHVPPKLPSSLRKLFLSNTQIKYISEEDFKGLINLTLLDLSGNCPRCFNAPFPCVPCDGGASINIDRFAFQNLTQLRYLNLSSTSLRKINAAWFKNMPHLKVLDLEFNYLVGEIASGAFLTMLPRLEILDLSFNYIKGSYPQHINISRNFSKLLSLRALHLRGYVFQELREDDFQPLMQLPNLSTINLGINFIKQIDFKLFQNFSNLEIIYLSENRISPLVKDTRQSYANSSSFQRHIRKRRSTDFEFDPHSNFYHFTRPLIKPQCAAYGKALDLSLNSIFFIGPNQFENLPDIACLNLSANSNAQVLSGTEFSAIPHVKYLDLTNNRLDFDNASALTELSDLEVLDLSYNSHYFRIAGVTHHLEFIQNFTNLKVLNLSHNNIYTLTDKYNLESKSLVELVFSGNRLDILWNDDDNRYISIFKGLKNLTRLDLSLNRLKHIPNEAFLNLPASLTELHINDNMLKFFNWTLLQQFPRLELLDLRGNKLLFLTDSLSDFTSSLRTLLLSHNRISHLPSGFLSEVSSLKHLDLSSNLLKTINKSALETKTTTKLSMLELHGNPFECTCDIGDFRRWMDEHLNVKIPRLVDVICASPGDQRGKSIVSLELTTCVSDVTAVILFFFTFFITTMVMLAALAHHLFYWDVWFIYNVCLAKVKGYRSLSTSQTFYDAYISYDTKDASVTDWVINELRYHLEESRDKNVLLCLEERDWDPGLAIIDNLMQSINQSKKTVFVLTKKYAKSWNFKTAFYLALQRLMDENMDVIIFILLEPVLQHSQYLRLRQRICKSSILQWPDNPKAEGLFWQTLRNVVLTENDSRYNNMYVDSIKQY
Summary of the method: as §1

[3] = molecular target: human TLR9 (Homo sapiens (Human), UniProt Q9NR96); experiment: TLR9 inhibition reporter assay (HEK-Blue, SEAP); conditions: HEK-Blue cells overexpressing human TLR9, ODN2006 5 nM stimulation
human TLR9, sequence (Q9NR96 26-1032): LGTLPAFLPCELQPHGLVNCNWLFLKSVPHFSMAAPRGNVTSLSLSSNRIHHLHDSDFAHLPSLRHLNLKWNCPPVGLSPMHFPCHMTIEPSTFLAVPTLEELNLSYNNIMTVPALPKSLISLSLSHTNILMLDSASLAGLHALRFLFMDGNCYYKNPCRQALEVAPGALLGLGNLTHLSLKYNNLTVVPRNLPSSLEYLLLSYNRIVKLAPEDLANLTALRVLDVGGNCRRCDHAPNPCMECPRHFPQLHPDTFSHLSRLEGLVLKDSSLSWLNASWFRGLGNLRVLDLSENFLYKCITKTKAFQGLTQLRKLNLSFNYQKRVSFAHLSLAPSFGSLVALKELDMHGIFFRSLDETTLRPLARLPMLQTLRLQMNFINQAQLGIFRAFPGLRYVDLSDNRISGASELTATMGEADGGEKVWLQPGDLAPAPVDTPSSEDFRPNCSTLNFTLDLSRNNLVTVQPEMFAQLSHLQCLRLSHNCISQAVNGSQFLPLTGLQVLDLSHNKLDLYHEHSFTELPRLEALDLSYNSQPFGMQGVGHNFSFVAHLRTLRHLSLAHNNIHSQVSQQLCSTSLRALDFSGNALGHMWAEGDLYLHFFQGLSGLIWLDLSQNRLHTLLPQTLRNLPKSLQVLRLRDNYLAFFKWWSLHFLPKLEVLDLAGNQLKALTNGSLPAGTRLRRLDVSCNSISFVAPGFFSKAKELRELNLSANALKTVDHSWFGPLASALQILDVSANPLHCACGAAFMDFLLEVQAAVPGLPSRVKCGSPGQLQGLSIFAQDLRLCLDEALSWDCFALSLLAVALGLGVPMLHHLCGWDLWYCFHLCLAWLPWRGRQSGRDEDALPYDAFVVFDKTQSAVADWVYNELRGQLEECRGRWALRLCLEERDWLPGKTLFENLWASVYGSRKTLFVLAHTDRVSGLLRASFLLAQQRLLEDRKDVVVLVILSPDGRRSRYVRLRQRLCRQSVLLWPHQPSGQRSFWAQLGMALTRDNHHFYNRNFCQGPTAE
Summary of the method: as §1

human TLR7, sequence (Q9NYK1 27-1049): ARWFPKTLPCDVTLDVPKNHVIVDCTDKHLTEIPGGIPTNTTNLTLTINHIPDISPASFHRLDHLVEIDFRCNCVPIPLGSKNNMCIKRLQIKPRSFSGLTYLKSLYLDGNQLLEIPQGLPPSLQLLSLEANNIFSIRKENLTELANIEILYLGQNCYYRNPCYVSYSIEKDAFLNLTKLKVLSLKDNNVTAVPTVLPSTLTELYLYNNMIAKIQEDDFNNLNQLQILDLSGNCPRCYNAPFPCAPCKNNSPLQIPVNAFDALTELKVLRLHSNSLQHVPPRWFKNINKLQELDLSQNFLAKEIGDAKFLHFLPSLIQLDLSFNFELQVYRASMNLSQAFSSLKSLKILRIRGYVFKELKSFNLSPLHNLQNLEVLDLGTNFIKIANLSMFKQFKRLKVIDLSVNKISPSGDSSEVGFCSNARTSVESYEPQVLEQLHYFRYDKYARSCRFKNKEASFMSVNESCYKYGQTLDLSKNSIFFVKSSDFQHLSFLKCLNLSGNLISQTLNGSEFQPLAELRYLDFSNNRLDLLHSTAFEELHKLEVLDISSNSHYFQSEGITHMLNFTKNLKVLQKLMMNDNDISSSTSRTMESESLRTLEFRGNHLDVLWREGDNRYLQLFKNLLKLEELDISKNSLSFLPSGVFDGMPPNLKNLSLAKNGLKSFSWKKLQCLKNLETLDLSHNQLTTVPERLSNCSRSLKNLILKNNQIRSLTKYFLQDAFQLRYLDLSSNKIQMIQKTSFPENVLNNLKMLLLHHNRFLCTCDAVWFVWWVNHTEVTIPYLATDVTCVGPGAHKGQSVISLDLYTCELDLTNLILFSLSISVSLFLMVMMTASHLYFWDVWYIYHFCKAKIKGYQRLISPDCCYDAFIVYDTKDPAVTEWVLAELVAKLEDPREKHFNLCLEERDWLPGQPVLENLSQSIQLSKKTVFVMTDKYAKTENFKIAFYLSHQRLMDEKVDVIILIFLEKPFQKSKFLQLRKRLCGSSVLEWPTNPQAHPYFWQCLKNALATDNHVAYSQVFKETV

Row | Compound | IC50 [1] | IC50 [2] | IC50 [3]
1 | FC(F)Cc1c(-c2ccnc3[nH]ncc23)[nH]c2ccc(-c3nnc([C@@H]4CCCNC4)o3)cc12 [Example 243, (R)-2-(3-(2,2-difluoroethyl)-2-(1H-pyrazolo[3,4-b]pyridin-4-yl)-1H-indol-5-yl)-5-(piperidin-3-yl)-1,3,4-oxadiazole] | 2280 nM | 1300 nM | 3260 nM
2 | Cc1cc(-c2[nH]c3ccc(-c4ccc(N(C)C)nc4)cc3c2C(C)C)ccn1 [Example 246, 5-(3-isopropyl-2-(2-methylpyridin-4-yl)-1H-indol-5-yl)-N,N-dimethylpyridin-2-amine] | 56 nM | 21 nM | > 50000 nM
3 | Cc1cc(-c2[nH]c3ccc(-c4ccc(NC(C)C)nc4)cc3c2C(C)C)ccn1 [Example 247, N-isopropyl-5-(3-isopropyl-2-(2-methylpyridin-4-yl)-1H-indol-5-yl)pyridin-2-amine] | 84 nM | 6.4 nM | 5540 nM
4 | Cc1cc(-c2[nH]c3ccc(-c4nnc(C5CN6CCC5CC6)o4)cc3c2C(C)C)cc(C)n1 (stereo not drawn) [Example 250, 2-(2-(2,6-dimethylpyridin-4-yl)-3-isopropyl-1H-indol-5-yl)-5-(quinuclidin-3-yl)-1,3,4-oxadiazole] | 3.4 nM | 2.1 nM | 113 nM
5 | Cc1cc(-c2[nH]c3ccc(-c4cnc(C5CCNCC5)[nH]4)cc3c2C(C)C)ccn1 [Example 254, 3-isopropyl-2-(2-methylpyridin-4-yl)-5-(2-(piperidin-4-yl)-1H-imidazol-5-yl)-1H-indole] | 88 nM | 77 nM | 1210 nM
6 | CC(=O)Nc1ccc(-c2ccc3[nH]c(-c4ccnc(C)c4)c(C(C)C)c3c2)cn1 [Example 256, N-(5-(3-isopropyl-2-(2-methylpyridin-4-yl)-1H-indol-5-yl)pyridin-2-yl)acetamide] | 99 nM | 15 nM | > 50000 nM
7 | Cc1cc(-c2[nH]c3ccc(-c4ccnc(-c5cn[nH]c5)c4)cc3c2C(C)C)ccn1 [Example 258, 5-(2-(1H-pyrazol-4-yl)pyridin-4-yl)-3-isopropyl-2-(2-methylpyridin-4-yl)-1H-indole] | 224 nM | 4 nM | 12000 nM
8 | Cc1cc(-c2[nH]c3ccc(-c4nnc(CC(C)N)o4)cc3c2C(C)C)ccn1 (stereo not drawn) [Example 259, 1-(5-(3-isopropyl-2-(2-methylpyridin-4-yl)-1H-indol-5-yl)-1,3,4-oxadiazol-2-yl)propan-2-amine] | 26 nM | 5.5 nM | 876 nM
9 | Cc1cc(-c2[nH]c3ccc(-c4nnc(CCN5CCCCC5)o4)cc3c2C(C)C)ccn1 [Example 260, 2-(3-isopropyl-2-(2-methylpyridin-4-yl)-1H-indol-5-yl)-5-(2-(piperidin-1-yl)ethyl)-1,3,4-oxadiazole] | 133 nM | 2.2 nM | 1230 nM
10 | Cc1cc(-c2[nH]c3ccc(-c4nnc([C@@H]5CCCN5)o4)cc3c2C(C)C)ccn1 [Example 261, (S)-2-(3-isopropyl-2-(2-methylpyridin-4-yl)-1H-indol-5-yl)-5-(pyrrolidin-2-yl)-1,3,4-oxadiazole] | 162 nM | 4.5 nM | 6280 nM
11 | Cc1cc(-c2[nH]c3ccc(-c4nnc(CCc5cccnc5)o4)cc3c2C(C)C)ccn1 [Example 262, 2-(3-isopropyl-2-(2-methylpyridin-4-yl)-1H-indol-5-yl)-5-(2-(pyridin-3-yl)ethyl)-1,3,4-oxadiazole] | 286 nM | 60 nM | 5890 nM
12 | Cc1cc(-c2[nH]c3ccc(-c4nnc(C(C)CN)o4)cc3c2C(C)C)ccn1 (stereo not drawn) [Example 263, 2-(5-(3-isopropyl-2-(2-methylpyridin-4-yl)-1H-indol-5-yl)-1,3,4-oxadiazol-2-yl)propan-1-amine] | 50 nM | 3.2 nM | 869 nM
13 | Cc1cc(-c2[nH]c3ccc(-c4nnc(CCCCN)o4)cc3c2C(C)C)ccn1 [Example 264, 4-(5-(3-isopropyl-2-(2-methylpyridin-4-yl)-1H-indol-5-yl)-1,3,4-oxadiazol-2-yl)butan-1-amine] | 251 nM | 36 nM | 7270 nM
14 | Cc1cc(-c2[nH]c3ccc(-c4nnc([C@@H](N)C5CC5)o4)cc3c2C(C)C)ccn1 [Example 268, (S)-cyclopropyl(5-(3-isopropyl-2-(2-methylpyridin-4-yl)-1H-indol-5-yl)-1,3,4-oxadiazol-2-yl)methanamine] | 214 nM | 2.8 nM | 33800 nM
15 | Cc1cc(-c2[nH]c3ccc(-c4ccnc(N5CCN(C)CC5)c4)cc3c2C(C)C)ccn1 [Example 269, 3-isopropyl-5-(2-(4-methylpiperazin-1-yl)pyridin-4-yl)-2-(2-methylpyridin-4-yl)-1H-indole] | 74 nM | 5.5 nM | 824 nM

The remaining lines, values ahead:

Row | IC50 [1] | IC50 [2] | IC50 [3] | Compound
16 | 43 nM | 43 nM | 306 nM | CC(C)c1c(-c2ccc3nccn3c2)[nH]c2ccc(-c3nnc(C(=O)NC4CCN(C(C)C)CC4)o3)cc12 [Example 241, 5-(2-(imidazo[1,2-a]pyridin-6-yl)-3-isopropyl-1H-indol-5-yl)-N-(1-isopropylpiperidin-4-yl)-1,3,4-oxadiazole-2-carboxamide]
17 | 22 nM | 30 nM | 306 nM | CC(C)c1c(-c2ccc3nccn3c2)[nH]c2ccc(-c3nnc(C(=O)NCCN(C)C)o3)cc12 [Example 242, N-(2-(dimethylamino)ethyl)-5-(2-(imidazo[1,2-a]pyridin-6-yl)-3-isopropyl-1H-indol-5-yl)-1,3,4-oxadiazole-2-carboxamide]
18 | 5.4 nM | 1.5 nM | 304 nM | Cc1cc(-c2[nH]c3ccc(-c4nnc([C@@H]5CCCN(C(C)C)C5)o4)cc3c2C(C)C)cc(C)n1 [Example 245, (R)-2-(2-(2,6-dimethylpyridin-4-yl)-3-isopropyl-1H-indol-5-yl)-5-(1-isopropylpiperidin-3-yl)-1,3,4-oxadiazole]
19 | 20 nM | 2.6 nM | 4070 nM | Cc1cc(-c2[nH]c3ccc(-c4ccc(NC(C)C)nc4)cc3c2C(C)C)cc(C)n1 [Example 248, 5-(2-(2,6-dimethylpyridin-4-yl)-3-isopropyl-1H-indol-5-yl)-N-isopropylpyridin-2-amine]
20 | 35 nM | 1.4 nM | 484 nM | Cc1cc(-c2[nH]c3ccc(-c4cc5c(s4)CN(C)CC5)cc3c2C(C)C)ccn1 [Example 251, 2-(3-isopropyl-2-(2-methylpyridin-4-yl)-1H-indol-5-yl)-6-methyl-4,5,6,7-tetrahydrothieno[2,3-c]pyridine]
21 | 22 nM | 12 nM | 788 nM | CNCC(=O)N1CCc2cc(-c3ccc4[nH]c(-c5ccnc(C)c5)c(C(C)C)c4c3)sc2C1 [Example 252, 1-(2-(3-isopropyl-2-(2-methylpyridin-4-yl)-1H-indol-5-yl)-4,7-dihydrothieno[2,3-c]pyridin-6(5H)-yl)-2-(methylamino)ethan-1-one]
22 | 45 nM | 22 nM | 304 nM | Cc1cc(-c2[nH]c3ccc(-c4ccc(N5CCN(C)CC5)nc4)cc3c2C(C)C)ccn1 [Example 253, 3-isopropyl-5-(6-(4-methylpiperazin-1-yl)pyridin-3-yl)-2-(2-methylpyridin-4-yl)-1H-indole]
23 | 12 nM | 2.9 nM | 340 nM | Cc1cc(-c2[nH]c3ccc(-c4ccc(N5CCNCC5)nc4)cc3c2C(C)C)ccn1 [Example 255, 3-isopropyl-2-(2-methylpyridin-4-yl)-5-(6-(piperazin-1-yl)pyridin-3-yl)-1H-indole]
24 | 1.7 nM | 1.7 nM | 151 nM | Cc1cc(-c2[nH]c3ccc(-c4ccc(N5CCNCC5)nc4)cc3c2C(C)C)cc(C)n1 [Example 257, 2-(2,6-dimethylpyridin-4-yl)-3-isopropyl-5-(6-(piperazin-1-yl)pyridin-3-yl)-1H-indole]
25 | 21 nM | 3.3 nM | 561 nM | Cc1cc(-c2[nH]c3ccc(-c4nnc(CC(C)(C)N)o4)cc3c2C(C)C)ccn1 [Example 265, 1-(5-(3-isopropyl-2-(2-methylpyridin-4-yl)-1H-indol-5-yl)-1,3,4-oxadiazol-2-yl)-2-methylpropan-2-amine]
26 | 38 nM | 0.5 nM | 781 nM | Cc1cc(-c2[nH]c3ccc(-c4nnc([C@@H]5CCCC[C@@H]5N)o4)cc3c2C(C)C)ccn1 [Example 266, (1S,2R)-2-(5-(3-isopropyl-2-(2-methylpyridin-4-yl)-1H-indol-5-yl)-1,3,4-oxadiazol-2-yl)cyclohexan-1-amine]
27 | 30 nM | 2.4 nM | 752 nM | Cc1cc(-c2[nH]c3ccc(-c4nnc([C@@H]5CCC[C@@H]5N)o4)cc3c2C(C)C)ccn1 [Example 267, (1S,2R)-2-(5-(3-isopropyl-2-(2-methylpyridin-4-yl)-1H-indol-5-yl)-1,3,4-oxadiazol-2-yl)cyclopentan-1-amine]
28 | 10 nM | 1 nM | 298 nM | Cc1cc(-c2[nH]c3ccc(-c4nnc(CCN(C)C)o4)cc3c2C(C)C)cc(C)n1 [Example 270, 2-(5-(2-(2,6-dimethylpyridin-4-yl)-3-isopropyl-1H-indol-5-yl)-1,3,4-oxadiazol-2-yl)-N,N-dimethylethan-1-amine]
29 | 6.3 nM | 1.9 nM | 281 nM | Cc1cc(-c2[nH]c3ccc(-c4nnc(CCCN(C)C)o4)cc3c2C(C)C)cc(C)n1 [Example 271, 3-(5-(2-(2,6-dimethylpyridin-4-yl)-3-isopropyl-1H-indol-5-yl)-1,3,4-oxadiazol-2-yl)-N,N-dimethylpropan-1-amine]
